Data: patent US20240101521A1, “DIAMINOTRIAZINE COMPOUNDS” (BASF SE, priority 2021, published 2024)

What was measured:
Test in all cases: greenhouse pre-emergence herbicidal test
Format in all cases: in vivo
Alopecurus myosuroides = settings: pre-emergence, 250 g/ha, scale 0 to 100
Excerpt: (§1) The culture containers used were plastic flowerpots containing loamy sand with approximately 3.0% of humus as the substrate. The seeds of the test plants were sown separately for each species.
(§2) For the pre-emergence treatment, the active ingredients, which had been suspended or emulsified in water, were applied directly after sowing by means of finely distributing nozzles. The containers were irrigated gently to promote germination and growth and subsequently covered with transparent plastic hoods until the plants had rooted. This cover caused uniform germination of the test plants, unless this had been impaired by the active ingredients. For the post-emergence treatment, the test plants were first grown to a height of 3 to 15 cm, depending on the plant habit, and only then treated with the active ingredients which had been suspended or emulsified in water. For this purpose, the test plants were either sown directly and grown in the same containers, or they were first grown separately as seedlings and transplanted into the test containers a few days prior to treatment.
(§3) Depending on the species, the plants were kept at 10-25° C. or 20-35° C., respectively.
(§4) The test period extended over 2 to 4 weeks. During this time, the plants were tended, and their response to the individual treatments was evaluated.
(§5) Evaluation was carried out using a scale from 0 to 100. 100 means no emergence of the plants, or complete destruction of at least the aerial moieties, and 0 means no damage, or normal course of growth. A moderate herbicidal activity is given at values of at least 60, a good herbicidal activity is given at values of at least 70, and a very good herbicidal activity is given at values of at least 85.
(§6) The plants used in the greenhouse experiments were of the following species: […]

Echinochloa crus-galli = settings: scale 0 to 100
Excerpt: as §1, §2, §3, §4, §5, §6

Setaria faberi = settings: scale 0 to 100
Excerpt: as §1, §2, §3, §4, §5, §6

Abutilon theophrasti = settings: scale 0 to 100
Excerpt: as §1, §2, §3, §4, §5, §6

Amaranthus retroflexus = settings: scale 0 to 100
Excerpt: as §1, §2, §3, §4, §5, §6

## COc1c(Cl)cc(F)c(F)c1Nc1nc(N)nc(C(F)CC(C)C)n1 (racemic) [Example 12]
Alopecurus myosuroides
  herbicidal activity: 100%
Echinochloa crus-galli; pre-emergence, 250 g/ha
  herbicidal activity: 100%
Setaria faberi; pre-emergence, 250 g/ha
  herbicidal activity: 100%

## COc1c(Br)cc(Br)c(F)c1Nc1nc(N)nc(C2(F)CCCCC2)n1 [Example 9]
Abutilon theophrasti; pre-emergence, 250 g/ha
  herbicidal activity: 90%
Amaranthus retroflexus; pre-emergence, 250 g/ha
  herbicidal activity: 100%
Setaria faberi; pre-emergence, 250 g/ha
  herbicidal activity: 95%

## COc1c(Cl)cc(F)c(F)c1Nc1nc(N)nc(C2(F)CCCCC2)n1 [Example 10]
Abutilon theophrasti; pre-emergence, 250 g/ha
  herbicidal activity: 100%
Amaranthus retroflexus; pre-emergence, 250 g/ha
  herbicidal activity: 100%
Setaria faberi; pre-emergence, 250 g/ha
  herbicidal activity: 100%

## CC#CCOc1c(Br)cc(F)c(F)c1Nc1nc(N)nc(C2(F)CCCC2)n1 [Example 16]
Abutilon theophrasti; pre-emergence, 250 g/ha
  herbicidal activity: 100%
Amaranthus retroflexus; pre-emergence, 250 g/ha
  herbicidal activity: 100%
Echinochloa crus-galli; pre-emergence, 250 g/ha
  herbicidal activity: 100%

## C#CCOc1c(Br)cc(F)c(F)c1Nc1nc(N)nc(C(C)(C)F)n1 [Example 17]
Abutilon theophrasti; pre-emergence, 250 g/ha
  herbicidal activity: 100%
Amaranthus retroflexus; pre-emergence, 250 g/ha
  herbicidal activity: 100%
Echinochloa crus-galli; pre-emergence, 250 g/ha
  herbicidal activity: 100%

## CC#CCOc1c(Cl)cc(F)c(F)c1Nc1nc(N)nc(C(C)(C)F)n1 [Example 18]
Abutilon theophrasti; pre-emergence, 62,5 g/ha
  herbicidal activity: 100%
Amaranthus retroflexus; pre-emergence, 62,5 g/ha
  herbicidal activity: 100%
Echinochloa crus-galli; pre-emergence, 62,5 g/ha
  herbicidal activity: 100%

## CCOc1c(Br)cc(F)c(F)c1Nc1nc(N)nc(C(C)(C)F)n1 [Example 19]
Abutilon theophrasti; pre-emergence, 62,5 g/ha
  herbicidal activity: 100%
Amaranthus retroflexus; pre-emergence, 62,5 g/ha
  herbicidal activity: 100%
Echinochloa crus-galli; pre-emergence, 62,5 g/ha
  herbicidal activity: 100%

## CCC#CCOc1c(Br)cc(F)c(F)c1Nc1nc(N)nc(C(C)(C)F)n1 [Example 20]
Abutilon theophrasti; pre-emergence, 62,5 g/ha
  herbicidal activity: 100%
Amaranthus retroflexus; pre-emergence, 62,5 g/ha
  herbicidal activity: 100%
Echinochloa crus-galli; pre-emergence, 62,5 g/ha
  herbicidal activity: 100%

## CC(C)(F)c1nc(N)nc(Nc2c(F)c(F)cc(Br)c2OCC#CC2CC2)n1 [Example 29]
Abutilon theophrasti; pre-emergence, 31 g/ha
  herbicidal activity: 100%
Amaranthus retroflexus; pre-emergence, 31 g/ha
  herbicidal activity: 100%
Setaria faberi; pre-emergence, 31 g/ha
  herbicidal activity: 100%

## CC(C)(F)c1nc(N)nc(Nc2c(F)c(F)cc(Br)c2OC(F)F)n1 [Example 31]
Abutilon theophrasti; pre-emergence, 250 g/ha
  herbicidal activity: 100%
Amaranthus retroflexus; pre-emergence, 250 g/ha
  herbicidal activity: 100%
Echinochloa crus-galli; pre-emergence, 250 g/ha
  herbicidal activity: 100%

## COc1c(F)cc(C)c(F)c1Nc1nc(N)nc(C(C)(C)F)n1 [Example 32, N4-(2,5-difluoro-6-methoxy-3-methyl-phenyl)-6-(1-fluoro-1-methyl-ethyl)-1,3,5-triazine-2,4-diamine]
Abutilon theophrasti; pre-emergence, 62,5 g/ha
  herbicidal activity: 100%
Amaranthus retroflexus; pre-emergence, 62,5 g/ha
  herbicidal activity: 100%
Echinochloa crus-galli; pre-emergence, 62,5 g/ha
  herbicidal activity: 100%

## COc1c(Br)cc(F)c(F)c1Nc1nc(N)nc(C(C)(F)CCl)n1 (stereo not drawn) [Example 33]
Abutilon theophrasti; pre-emergence, 62,5 g/ha
  herbicidal activity: 100%
Amaranthus retroflexus; pre-emergence, 62,5 g/ha
  herbicidal activity: 100%
Echinochloa crus-galli; pre-emergence, 62,5 g/ha
  herbicidal activity: 98%

## COc1c(Cl)cc(F)c(F)c1Nc1nc(N)nc(C(C)(F)CCl)n1 (stereo not drawn) [Example 34]
Abutilon theophrasti; pre-emergence, 62,5 g/ha
  herbicidal activity: 100%
Amaranthus retroflexus; pre-emergence, 62,5 g/ha
  herbicidal activity: 100%
Echinochloa crus-galli; pre-emergence, 62,5 g/ha
  herbicidal activity: 100%

## COc1c(Cl)cc(F)c(F)c1Nc1nc(N)nc(C2(F)CC2)n1 [Example 35]
Abutilon theophrasti; pre-emergence, 62,5 g/ha
  herbicidal activity: 100%
Amaranthus retroflexus; pre-emergence, 62,5 g/ha
  herbicidal activity: 100%
Echinochloa crus-galli; pre-emergence, 62,5 g/ha
  herbicidal activity: 100%

## COc1c(Cl)cc(F)c(F)c1Nc1nc(N)nc(C(C)(C)OC)n1 [Example 36]
Abutilon theophrasti; pre-emergence, 62,5 g/ha
  herbicidal activity: 100%
Amaranthus retroflexus; pre-emergence, 62,5 g/ha
  herbicidal activity: 100%
Echinochloa crus-galli; pre-emergence, 62,5 g/ha
  herbicidal activity: 100%

## COc1c(Cl)cc(F)c(F)c1Nc1nc(N)nc(C(C)(C)Cl)n1 [Example 37]
Abutilon theophrasti; pre-emergence, 62,5 g/ha
  herbicidal activity: 98%
Amaranthus retroflexus; pre-emergence, 62,5 g/ha
  herbicidal activity: 100%
Echinochloa crus-galli; pre-emergence, 62,5 g/ha
  herbicidal activity: 100%

## COc1c(Cl)cc(F)c(F)c1Nc1nc(N)nc(C(C)(F)F)n1 [Example 49, N4-(5-chloro-2,3-difluoro-6-methoxy-phenyl)-6-(1,1-difluoroethyl)-1,3,5-triazine-2,4-diamine]
Abutilon theophrasti; pre-emergence, 62,5 g/ha
  herbicidal activity: 100%
Amaranthus retroflexus; pre-emergence, 62,5 g/ha
  herbicidal activity: 100%
Echinochloa crus-galli; pre-emergence, 62,5 g/ha
  herbicidal activity: 100%

## COc1c(Br)cc(F)c(F)c1Nc1nc(N)nc(C(C)(F)F)n1 [Example 50]
Abutilon theophrasti; pre-emergence, 31 g/ha
  herbicidal activity: 80%
Amaranthus retroflexus; pre-emergence, 31 g/ha
  herbicidal activity: 100%
Setaria faberi; pre-emergence, 31 g/ha
  herbicidal activity: 100%

## COc1c(C)cc(Br)c(F)c1Nc1nc(N)nc(C(C)(C)F)n1 [Example 51]
Abutilon theophrasti; pre-emergence, 62 g/ha
  herbicidal activity: 100%
Amaranthus retroflexus; pre-emergence, 62 g/ha
  herbicidal activity: 100%
Setaria faberi; pre-emergence, 62 g/ha
  herbicidal activity: 100%

## COc1c(Br)cc(F)c(F)c1Nc1nc(N)nc(C2(F)CC2)n1 [Example 55]
Abutilon theophrasti; pre-emergence, 62,5 g/ha
  herbicidal activity: 100%
Amaranthus retroflexus; pre-emergence, 62,5 g/ha
  herbicidal activity: 100%
Echinochloa crus-galli; pre-emergence, 62,5 g/ha
  herbicidal activity: 100%

## CC#CCOc1c(Cl)cc(Cl)c(F)c1Nc1nc(N)nc(C(C)(C)F)n1 [Example 61]
Abutilon theophrasti; pre-emergence, 31 g/ha
  herbicidal activity: 100%
Amaranthus retroflexus; pre-emergence, 31 g/ha
  herbicidal activity: 100%
Echinochloa crus-galli; pre-emergence, 31 g/ha
  herbicidal activity: 100%

## CC#CCOc1c(Br)cc(Br)c(F)c1Nc1nc(N)nc(C(C)(C)F)n1 [Example 64]
Abutilon theophrasti; pre-emergence, 62 g/ha
  herbicidal activity: 100%
Echinochloa crus-galli; pre-emergence, 62 g/ha
  herbicidal activity: 100%
Setaria faberi; pre-emergence, 62 g/ha
  herbicidal activity: 100%

## C#CCOc1c(Br)cc(Br)c(F)c1Nc1nc(N)nc(C(C)(C)F)n1 [Example 65]
Abutilon theophrasti; pre-emergence, 62 g/ha
  herbicidal activity: 100%
Echinochloa crus-galli; pre-emergence, 62 g/ha
  herbicidal activity: 100%
Setaria faberi; pre-emergence, 62 g/ha
  herbicidal activity: 100%

## COc1c(Br)cc(F)c(F)c1Nc1nc(N)nc(C2(F)CCCC2)n1 [Example 81]
Abutilon theophrasti; pre-emergence, 62 g/ha
  herbicidal activity: 100%
Echinochloa crus-galli; pre-emergence, 62 g/ha
  herbicidal activity: 100%
Setaria faberi; pre-emergence, 62 g/ha
  herbicidal activity: 100%

## CC#CCOc1c(Cl)cc(F)c(F)c1Nc1nc(N)nc(C(C)(F)CCl)n1 (stereo not drawn) [Example 84]
Abutilon theophrasti; pre-emergence, 62 g/ha
  herbicidal activity: 100%
Echinochloa crus-galli; pre-emergence, 62 g/ha
  herbicidal activity: 100%
Setaria faberi; pre-emergence, 62 g/ha
  herbicidal activity: 100%

## CC#CCOc1c(Br)cc(F)c(F)c1Nc1nc(N)nc(C(C)(C)OC)n1 [Example 85]
Abutilon theophrasti; pre-emergence, 62 g/ha
  herbicidal activity: 85%
Echinochloa crus-galli; pre-emergence, 62 g/ha
  herbicidal activity: 100%
Setaria faberi; pre-emergence, 62 g/ha
  herbicidal activity: 98%

## C#CC(C)Oc1c(Cl)cc(F)c(F)c1Nc1nc(N)nc(C(C)(C)F)n1 (stereo not drawn) [Example 99]
Abutilon theophrasti; pre-emergence, 62 g/ha
  herbicidal activity: 100%
Amaranthus retroflexus; pre-emergence, 62 g/ha
  herbicidal activity: 100%
Setaria faberi; pre-emergence, 62 g/ha
  herbicidal activity: 100%

## C#CC(C)Oc1c(F)cc(F)c(F)c1Nc1nc(N)nc(C2(F)CCCC2)n1 (stereo not drawn) [Example 105]
Abutilon theophrasti; pre-emergence, 62,5 g/ha
  herbicidal activity: 100%
Echinochloa crus-galli; pre-emergence, 62,5 g/ha
  herbicidal activity: 100%
Setaria faberi; pre-emergence, 62,5 g/ha
  herbicidal activity: 100%

## CC(C)(F)c1nc(N)nc(Nc2c(F)c(F)cc(Br)c2OCF)n1 [Example 106]
Abutilon theophrasti; pre-emergence, 62,5 g/ha
  herbicidal activity: 100%
Echinochloa crus-galli; pre-emergence, 62,5 g/ha
  herbicidal activity: 100%
Setaria faberi; pre-emergence, 62,5 g/ha
  herbicidal activity: 100%

## Nc1nc(Nc2c(F)c(F)cc(F)c2OCF)nc(C2(F)CCCC2)n1 [Example 107]
Abutilon theophrasti; pre-emergence, 62,5 g/ha
  herbicidal activity: 100%
Echinochloa crus-galli; pre-emergence, 62,5 g/ha
  herbicidal activity: 100%
Setaria faberi; pre-emergence, 62,5 g/ha
  herbicidal activity: 100%

## COc1c(Cl)cc(F)c(F)c1Nc1nc(N)nc(C(C)(F)CBr)n1 (stereo not drawn) [Example 114]
Abutilon theophrasti; pre-emergence, 62,5 g/ha
  herbicidal activity: 100%
Amaranthus retroflexus; pre-emergence, 62,5 g/ha
  herbicidal activity: 100%
Setaria faberi; pre-emergence, 62,5 g/ha
  herbicidal activity: 100%

## CCC(C)(F)c1nc(N)nc(Nc2c(F)c(F)cc(Br)c2OC)n1 (stereo not drawn) [Example 117]
Abutilon theophrasti; pre-emergence, 62,5 g/ha
  herbicidal activity: 98%
Amaranthus retroflexus; pre-emergence, 62,5 g/ha
  herbicidal activity: 100%
Setaria faberi; pre-emergence, 62,5 g/ha
  herbicidal activity: 100%

## C#CC(C)(F)c1nc(N)nc(Nc2c(F)c(F)cc(Cl)c2OC)n1 (stereo not drawn) [Example 118]
Abutilon theophrasti; pre-emergence, 62,5 g/ha
  herbicidal activity: 100%
Amaranthus retroflexus; pre-emergence, 62,5 g/ha
  herbicidal activity: 100%
Setaria faberi; pre-emergence, 62,5 g/ha
  herbicidal activity: 100%

## COc1c(Br)cc(F)c(F)c1Nc1nc(N)nc(C(C)F)n1 (stereo not drawn) [Example 120]
Abutilon theophrasti; pre-emergence, 62,5 g/ha
  herbicidal activity: 100%
Amaranthus retroflexus; pre-emergence, 62,5 g/ha
  herbicidal activity: 100%
Echinochloa crus-galli; pre-emergence, 62,5 g/ha
  herbicidal activity: 100%

## C=CC(C)(F)c1nc(N)nc(Nc2c(F)c(F)cc(Br)c2OC)n1 (stereo not drawn) [Example 121]
Abutilon theophrasti; pre-emergence, 62,5 g/ha
  herbicidal activity: 100%
Amaranthus retroflexus; pre-emergence, 62,5 g/ha
  herbicidal activity: 100%
Setaria faberi; pre-emergence, 62,5 g/ha
  herbicidal activity: 100%

## C=CC(C)(F)c1nc(N)nc(Nc2c(F)c(F)cc(Cl)c2OC)n1 (stereo not drawn) [Example 122]
Abutilon theophrasti; pre-emergence, 62,5 g/ha
  herbicidal activity: 100%
Amaranthus retroflexus; pre-emergence, 62,5 g/ha
  herbicidal activity: 100%
Setaria faberi; pre-emergence, 62,5 g/ha
  herbicidal activity: 100%

## COc1c(Cl)c(F)c(F)c(F)c1Nc1nc(N)nc(C(C)(C)C)n1 [Example 162]
Abutilon theophrasti; pre-emergence, 62,5 g/ha
  herbicidal activity: 95%
Echinochloa crus-galli; pre-emergence, 62,5 g/ha
  herbicidal activity: 95%
Setaria faberi; pre-emergence, 62,5 g/ha
  herbicidal activity: 100%
